Data on 7 compounds can be found in patent publication US11932652B2, “Pyrrolidinyl urea derivatives and application thereof in TrkA-related diseases” (ZHANGZHOU PIEN TZE HUANG PHARMACEUTICAL CO., LTD., priority 2018, dated 2024).

Series [1] concerns plasma protein. Description: Plasma protein binding rate (PPB) test, SD rat plasma. The following applies: 2 μM, dialysis 37° C. 4 hours. The format is in vitro ADME. The method, then: (§1) The protein binding rates of the test compound in the plasma of humans, SD rats and Beagle dogs were determined.
(§2) 796 μL of blank plasma from humans, SD rats and Beagle dogs (plasma purchased from BioreclamationIVT) were taken, 4 μL of working solution of the test compound (400 μM) or warfarin working solution (400 μM) was added and the final concentration of the test compound or warfarin was 2 μM. The sample was mixed thoroughly. The final concentration of organic phase DMSO was 0.5%; 50 μL of the plasma sample treated with the test compound or warfarin was pipetted into the sample receiving plate, and a corresponding volume of blank plasma or buffer was added immediately so that the final volume in each sample well was 100 μL, the volume ratio of plasma:dialysis buffer was 1:1; 400 μL of stop solution was added to these samples, and these samples were used as T0 samples for recovery and stability determination. To samples were stored at 2° C. to 8° C. for subsequent processing together with other dialyzed samples; 150 μL of the plasma sample treated with the test compound or warfarin was added into the dosing end of each dialysis hole, and 150 μL of blank dialysis buffer was added to the receiving end corresponding to the dialysis hole. Then the dialysis plate was sealed with gas-permeable membrane and placed in a humidified 5% CO2 incubator, and incubated at 37° C. with 100 rpm shaking for 4 hours. After the dialysis, 50 μL of the dialysis buffer sample and the dialysis plasma sample was transferred to a new sample receiving plate. […] All samples were analyzed by LC/MS/MS after protein precipitation, and the plasma protein unbound rate, binding rate and recovery rate was calculated according to the following formula: % unbound rate=100*free compound concentration at the membrane buffer side/total compound concentration at the membrane plasma side, % protein binding rate=100-% unbound rate, % recovery rate=100*(free compound concentration at the membrane buffer side+total compound concentration at the membrane plasma side)/total compound concentration before dialysis.

A short description of series [2]: Metabolic stability (MMS) by human liver microsome. The format is in vitro ADME. The following applies: liver microsomes, pH 7.4, 0.5 mg protein/mL, read-out: Intrinsic clearance by liver microsome, Human. The method, then: (§3) Determination of the metabolic stability of the test compound by human, rat and canine liver microsome.
(§4) Test compound (10 mM), testosterone (reference compound, 10 mM), diclofenac (reference compound, 10 mM), propafenone (reference compound, 10 mM).
(§5) 100 mM potassium phosphate buffer (pH 7.4).
(§6) Intermediate solution: 45 μL of DMSO was used (with 450 μL of 1:1 methanol/water) to dilute 5 μL of the test or reference compound.
(§7) Working solution: 450 μL of 100 mM potassium phosphate buffer was used to dilute the intermediate solution.
(§8) 1. β-Nicotinamide adenine dinucleotide phosphate, from Sigma, Cat. No. N0505.
(§9) 3. Isocitrate dehydrogenase, from Sigma, Cat. No. 12002.
(§10) Preparation of liver microsome solution (final concentration: 0.5 mg protein/mL)
(§11) Cold acetonitrile containing 100 ng/mL tolbutamide and 100 ng/mL labetalol was used as the internal standard.
(§12) 10 μL of the working solution of the test compound or reference compound was added to all plates (T0, T5, T10, T20, T30, T60, NCF60).
(§13) 680 μL of liver microsome solution was added to each well of 96-well plates, then 80 μL was added to each well of the plates, and the plates were placed at 37° C. for pre-incubation for approximately 10 minutes. […]
(§14) The half-life T/2 and the intrinsic clearance by liver microsome Clint(mic) were calculated by the following formulas: […]
In general terms: Liver microsomes are a subcellular fraction often used to study metabolism.

The nature of series [3]: Metabolic stability (MMS) by rat liver microsome. The format is in vitro ADME. The following applies: liver microsomes, pH 7.4, 0.5 mg protein/mL, read-out: Intrinsic clearance by liver microsome, Rat. The method, then:
as §3, §4, §5, §6, §7, §8, §9, §10, §11, §12, §13, §14

The target of a further series is T1, TrkA (Homo sapiens, UniProt P04629).
T1 construct: purchased Invitrogen PV4114
T1 sequence (P04629 33-796): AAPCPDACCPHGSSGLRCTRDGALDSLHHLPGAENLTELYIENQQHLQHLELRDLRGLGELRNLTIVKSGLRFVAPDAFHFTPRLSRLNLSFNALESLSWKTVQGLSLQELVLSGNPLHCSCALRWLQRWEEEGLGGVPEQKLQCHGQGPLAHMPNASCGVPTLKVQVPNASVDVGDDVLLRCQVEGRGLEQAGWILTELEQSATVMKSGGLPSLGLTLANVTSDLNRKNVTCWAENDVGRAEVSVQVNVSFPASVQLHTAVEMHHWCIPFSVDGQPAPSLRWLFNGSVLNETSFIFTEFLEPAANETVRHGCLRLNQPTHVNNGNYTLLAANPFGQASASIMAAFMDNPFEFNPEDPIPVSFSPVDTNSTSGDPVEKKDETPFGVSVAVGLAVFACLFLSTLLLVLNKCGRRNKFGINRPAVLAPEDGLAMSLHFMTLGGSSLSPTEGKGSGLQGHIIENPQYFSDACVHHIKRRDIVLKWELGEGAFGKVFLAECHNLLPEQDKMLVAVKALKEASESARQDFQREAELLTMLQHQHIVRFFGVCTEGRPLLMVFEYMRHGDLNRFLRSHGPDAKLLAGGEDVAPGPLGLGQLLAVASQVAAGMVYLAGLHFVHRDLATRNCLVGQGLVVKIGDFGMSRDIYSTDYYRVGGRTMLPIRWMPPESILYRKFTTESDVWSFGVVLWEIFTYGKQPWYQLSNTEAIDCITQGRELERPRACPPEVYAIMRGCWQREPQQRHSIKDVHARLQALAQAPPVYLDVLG
Description: TrkA enzyme activity test (HTRF). The format is biochemical. Conditions: 0.5 nM TrkA kinase, 90 μM ATP, 23° C., 90 minutes. Here is the method:
50 mM Hepes (pH 7.5), 5 mM MgCl2 (magnesium chloride), 0.01 mM orthovanadate (sodium vanadate), 1% BSA (bovine serum albumin), 1 mM (dithiothreitol)
This experiment used Cisbio's homogeneous time-resolved fluorescence resonance energy transfer (HTRF® method) for activity test. In the test plate, the enzyme, biotin-labeled peptide substrate, ATP, and test compound were mixed, and incubated for reaction. After the reaction, ethylenediaminetetraacetic acid was added to terminate the reaction; at the same time, Eu-labeled antibody and streptavidin-labeled XL665 were added for reaction and detection. The data were expressed by the readings of the fluorescence signal at 665 nm and 620 nm, where a high ratio of 665 nm/620 nm indicated higher activity, and a low ratio of 665 nm/620 nm indicated inhibition of activity.
1. Dilution of compound: the test compound was 3-fold diluted to prepare a total of 11 concentrations, the concentration was from 10 μM to 0.17 nM in the final system;
2. A 10 μL reaction system with a buffer of 50 mM Hepes (pH 7.5), 5 mM MgCl2, 0.01 mM sodium vanadate, 1% BSA, and 1 mM DTT, and containing 0.5 nM TrkA kinase, 0.3 μM biotin-TK peptide (biotin-labeled tyrosine kinase substrate peptide), 90 μM ATP was incubated at 23° C. for 90 minutes. 10 μL of stop solution containing 20 mM EDTA, 1.34 nM phosphorylated substrate antibody, and 100 nM streptavidin-labeled fluorescent molecule XL-665 was then added, incubated at 23° C. for 60 minutes; the signal was read with Envision;
3. The inhibition rate of the compound was calculated from the data read by the instrument, and the IC50 value was calculated using the mode 205 in XLFIT5 of IDBS.

The subject of series [4] is plasma protein. Description: Plasma protein binding rate (PPB) test, human plasma. Conditions: 2 μM, dialysis 37° C. 4 hours. The format is in vitro ADME. Here is the method:
as §1, §2

A further series has as its target T2, CYP2C9 (Homo sapiens, UniProt P11712).
T2 construct: from tissue; host or cells: human liver microsomes
Put plainly: Cytochrome P450 isozyme inhibitory activity test, CYP2C9. The format is in vitro ADME. The method, then:
(§15) Determination of the inhibitory activity of the test compound on different human cytochrome P450 isozymes.
(§16) The test compound, standard inhibitor (100×final concentration), and a mixed substrate working solution were prepared; the microsome frozen in −80° C. refrigerator was thawed. […]

A further series addresses T3, CYP2D6 (Homo sapiens, UniProt P10635).
T3 construct: from tissue; host or cells: human liver microsomes
Description: Cytochrome P450 isozyme inhibitory activity test, CYP2D6. The format is in vitro ADME. Conditions: human liver microsomes. The method, then: as §15, §16

The target of a further series is T4, CYP2C19 (Homo sapiens, UniProt P33261).
T4 construct: from tissue; host or cells: human liver microsomes
T4 sequence (P33261 whole entry): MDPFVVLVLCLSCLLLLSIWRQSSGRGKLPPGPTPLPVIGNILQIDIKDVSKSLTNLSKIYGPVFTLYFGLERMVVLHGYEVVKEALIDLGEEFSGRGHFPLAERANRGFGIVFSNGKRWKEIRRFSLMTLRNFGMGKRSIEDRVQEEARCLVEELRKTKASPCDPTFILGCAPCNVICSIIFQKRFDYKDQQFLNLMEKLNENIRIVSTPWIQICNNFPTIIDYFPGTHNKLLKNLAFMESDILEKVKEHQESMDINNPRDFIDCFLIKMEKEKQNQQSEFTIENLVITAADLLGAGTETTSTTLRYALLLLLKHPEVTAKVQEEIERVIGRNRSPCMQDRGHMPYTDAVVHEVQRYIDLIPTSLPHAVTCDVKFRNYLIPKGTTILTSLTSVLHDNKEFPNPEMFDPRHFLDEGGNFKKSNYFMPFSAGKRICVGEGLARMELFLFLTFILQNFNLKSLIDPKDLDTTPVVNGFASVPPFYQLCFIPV
Put plainly: Cytochrome P450 isozyme inhibitory activity test, CYP2C19. The format is in vitro ADME. The following applies: heading: Cytochrome P450 isozyme IC50, CYP2C19; human liver microsome. Here is the method: as §15
(§17) The test compound, standard inhibitor (100×final concentration), and a mixed substrate working solution were prepared; the microsome frozen in −80° C. refrigerator was thawed. 2 μL of the test compound and standard inhibitor solution was added to the corresponding wells, and at the same time 2 μL of the corresponding solvent was added to the non-inhibitor control wells (NIC) and blank control wells (Blank) wells; then 20 μL of mixed substrate solution was added to the corresponding wells, except for the Blank wells (20 μL of PB was added to the Blank wells); a human liver microsome solution was prepared (put back into the refrigerator immediately after using and marking the date), and then 158 μL of the human liver microsome solution was added to all wells; the above sample plate was placed in a 37° C. water bath for pre-incubation, then the coenzyme factor (NADPH) solution was prepared; 10 minutes later, 20 μL of the NADPH solution was added to all wells, and the sample plate was shaken well, placed in a 37° C. water bath and incubated for 10 minutes; at the corresponding time point, 400 μL of cold acetonitrile solution (internal standard: 200 ng/mL tolbutamide and labetalol) was added to terminate the reaction; the sample plate was evenly mixed, centrifuged at 4000 rpm for 20 minutes to precipitate proteins; 200 μL of the supernatant was added to 100 μL of water, shook well, and tested by LC/MS/MS.

The next series deals with T5, CYP3A4 (Homo sapiens, UniProt P08684).
T5 construct: from tissue; host or cells: human liver microsomes
T5 sequence (P08684 whole entry): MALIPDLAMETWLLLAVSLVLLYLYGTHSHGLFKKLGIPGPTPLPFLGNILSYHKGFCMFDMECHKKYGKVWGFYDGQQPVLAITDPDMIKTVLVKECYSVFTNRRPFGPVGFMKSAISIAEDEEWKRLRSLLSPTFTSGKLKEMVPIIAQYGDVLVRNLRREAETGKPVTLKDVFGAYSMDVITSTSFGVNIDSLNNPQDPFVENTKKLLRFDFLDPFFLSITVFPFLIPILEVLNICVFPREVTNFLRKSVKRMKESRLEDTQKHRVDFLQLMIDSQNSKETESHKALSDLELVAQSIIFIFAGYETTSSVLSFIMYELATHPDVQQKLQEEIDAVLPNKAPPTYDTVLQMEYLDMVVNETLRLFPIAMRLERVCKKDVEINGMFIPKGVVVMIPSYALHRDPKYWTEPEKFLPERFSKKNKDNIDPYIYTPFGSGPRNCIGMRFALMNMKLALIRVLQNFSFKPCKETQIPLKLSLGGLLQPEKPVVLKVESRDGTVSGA
Description: Cytochrome P450 isozyme inhibitory activity test, CYP3A4. The format is in vitro ADME. Conditions: human, human liver microsomes. Here is the method: as §15, §17

As a reminder, the IC50 is the point on the concentration scale where inhibition reaches its midpoint.

T3 sequence (P10635 whole entry): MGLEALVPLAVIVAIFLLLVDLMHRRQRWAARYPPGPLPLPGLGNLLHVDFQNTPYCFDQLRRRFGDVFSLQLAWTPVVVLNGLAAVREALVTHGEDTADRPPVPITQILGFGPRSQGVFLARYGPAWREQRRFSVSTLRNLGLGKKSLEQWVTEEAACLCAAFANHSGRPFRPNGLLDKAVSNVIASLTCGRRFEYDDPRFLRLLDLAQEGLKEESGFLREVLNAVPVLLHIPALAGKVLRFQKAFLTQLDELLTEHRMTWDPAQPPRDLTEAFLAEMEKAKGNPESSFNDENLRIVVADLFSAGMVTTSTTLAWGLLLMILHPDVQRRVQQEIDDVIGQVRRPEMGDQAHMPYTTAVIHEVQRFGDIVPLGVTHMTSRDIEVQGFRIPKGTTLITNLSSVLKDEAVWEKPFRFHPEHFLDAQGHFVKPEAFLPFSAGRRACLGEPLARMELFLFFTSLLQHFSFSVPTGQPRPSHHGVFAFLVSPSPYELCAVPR
T2 sequence (P11712 whole entry): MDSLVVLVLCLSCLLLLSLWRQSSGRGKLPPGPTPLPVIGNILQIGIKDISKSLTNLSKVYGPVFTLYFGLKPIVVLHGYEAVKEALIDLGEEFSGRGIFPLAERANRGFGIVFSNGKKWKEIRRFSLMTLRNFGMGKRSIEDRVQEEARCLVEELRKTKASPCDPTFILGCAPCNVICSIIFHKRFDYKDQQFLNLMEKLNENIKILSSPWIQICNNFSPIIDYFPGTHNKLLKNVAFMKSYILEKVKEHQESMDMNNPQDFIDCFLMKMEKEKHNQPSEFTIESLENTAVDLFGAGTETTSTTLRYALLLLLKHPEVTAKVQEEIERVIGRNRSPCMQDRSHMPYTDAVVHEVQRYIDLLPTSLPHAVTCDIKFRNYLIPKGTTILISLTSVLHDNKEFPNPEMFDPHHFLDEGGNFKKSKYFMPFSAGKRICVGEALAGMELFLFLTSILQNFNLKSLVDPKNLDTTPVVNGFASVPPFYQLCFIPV

As for `COCCN1C[C@@H](n2cc(F)c(F)c2)[C@H](NC(=O)Nc2c(C)c(-c3cnc4c(c3)CN(C)C4)nn2-c2ccccc2)C1` [Compound 2], in the series on plasma protein [1], the “Plasma protein unbound rate, SD Rat plasma” value came to 5.1%. The values for the CLint scaled in series [2] and in series [3] were 54.6 mL/min/kg and 25.5 mL/min/kg, respectively. At TrkA, 0.00027 µM corresponded to half-maximal inhibition (IC50). Further, the “Plasma protein unbound rate, Human plasma” value in the series on plasma protein [4] was 15.3%.

With `COCCN1C[C@@H](n2ccc(F)c2)[C@H](NC(=O)Nc2c(C)c(-c3cc4n(n3)CCC4)nn2-c2ccccc2)C1` [Compound 4], the midpoint of inhibition on TrkA, the IC50, lay at 0.00305 µM.

`COCCN1C[C@@H](n2ccc(F)c2)[C@H](NC(=O)Nc2c(C)c(-c3cnc4c(c3)COC4)nn2-c2ccccc2)C1` [Compound 5] had an IC50 against TrkA of 0.00024 µM.

As to `COCCN1C[C@@H](n2cc(F)c(F)c2)[C@H](NC(=O)Nc2c(C)c(-c3cnc4c(c3)COC4)nn2-c2ccccc2)C1` [Compound 1], the IC50 at 10 min against CYP2C9 (human, human liver microsomes) was determined as 24.2 µM; against CYP2D6 it was 28.5 µM; on CYP3A4, 19.2 µM. Besides, the IC50 is 0.00016 µM on TrkA and more than 50 µM at CYP2C19.

Turning to `COCCN1C[C@@H](NC(=O)Nc2c(C)c(-c3cnc(C)nc3)nn2-c2ccccc2)[C@H](c2cccc(F)c2)C1` [Reference compound D1, reference compound], the “Plasma protein unbound rate, SD Rat plasma” value in the series with plasma protein [1] is 9.6%. In addition, the CLint scaled came to 52.1 mL/min/kg in [2] and 52.9 mL/min/kg in [3]. Besides, the IC50 against CYP2C9 (heading: Cytochrome P450 isozyme IC50, CYP2C9, human liver microsome) was more than 50 µM; on CYP2C19 it was more than 50 µM. Also, the IC50 at 10 min against CYP2D6 turned out to be 39.7 µM; against CYP3A4, 37.1 µM. For the same compound, the “Plasma protein unbound rate, Human plasma” value in the series with plasma protein [4] is 13.6%.

Regarding `COCCN1C[C@@H](n2ccc(F)c2)[C@H](NC(=O)Nc2c(C)c(-c3cnc(C4(F)CNC4)nc3)nn2-c2ccccc2)C1` [Compound 8], the IC50 against TrkA turned out to be 0.00103 µM.

`COCCN1C[C@@H](n2cc(F)c(F)c2)[C@H](NC(=O)Nc2c(C)c(-c3cnc(C4(F)COC4)nc3)nn2-c2ccccc2)C1` [Compound 6] showed an IC50 at TrkA of 0.00027 µM.
